Test results published in US10696685B2, “Polyketides, methods of use and preparation” (Universiteit Leiden, priority 2015, dated 2020).
“Also recorded” adds a separate entry of the source.

Experiments:
Bacillus subtilis 168 = assay: Disk diffusion antimicrobial activity assay, Bacillus subtilis 168; type: cell-based; settings: paper disk, 25 μL of 2 μg/μL in chloroform (lugdunomycin: 10 μL of 1 μg/μL in methanol), 37° C., 18 h, FIG. 6 A
Text: (§1) Streptomyces sp. QL37 was isolated from soil in the Qinling mountains (P. R. China) soil as described previously (Zhu et al, 2014b). The previously undescribed strain was deposited to the collection of the Centraal Bureau voor Schimmelcultures (CBS) in Utrecht, The Netherlands. Streptomyces sp. QL37 was cultivated on Minimal Medium agar plates (MM) (Kieser et al., 2000) with 0.5% glycerol and 1% mannitol (w/v) as the carbon sources, on R5 agar supplemented with 0.8% peptone and 1% mannitol (w/v), or to prepare spore suspensions on SFM agar plates (Soy flour man nitol; (Kieser et al., 2000)). Square agar plates (12 cm×12 cm) were inoculated with 1×10^7 spores from a fresh spore suspension. As indicator strains for the antibacterial assays we used B. subtilis 168 and E. coli JM109 (Sambrook et al., 1989).
(§2) Antimicrobial activity was determined using a disk diffusion assay. For this, compounds were dissolved in chloroform to a concentration of (2 μg/μL) and of this solution, 25 μL was applied on a paper disk (GE Healthcare Bio-Sciences, Pittsburgh), except for lugdunomycin, for which 10 μL of a 1 μg/μL solution in methanol was used. […] After incubation at 37° C. for 18 h, growth inhibition zones (in mm) were recorded as antimicrobial activity.

Escherichia coli JM109 = assay: Disk diffusion antimicrobial activity assay, Escherichia coli JM109; type: cell-based; settings: paper disk, 25 μL of 2 μg/μL in chloroform (lugdunomycin: 10 μL of 1 μg/μL in methanol); 37° C., 18 h; FIG. 6 B, D
Text: as §1, §2

## COc1cccc2c1[C@@H](O)[C@]13C[C@@H](O)C[C@]1(C(=O)NC3=O)[C@]21Oc2cc(C)cc3ccc(O)c1c23 [Lugdunomycin (1), lugdunomycin]
Bacillus subtilis 168
  antimicrobial activity (growth inhibition) against Gram-positive Bacillus subtilis: showed inhibition efficacy; also recorded: showed antimicrobial activity
Escherichia coli JM109
  antimicrobial activity (growth inhibition) against Gram-negative Escherichia coli JM109: not against
